Experimental data published in BindingDB's records for doi:10.1016/s0014-2999(98)00159-9 (Novartis Pharma, 1998).
Where “and” joins values, the source holds several entries; their conditions need not be identical. Equal values may be shown once. Where a SMILES comes first, the peptide text is derived from it. Bridges are numbered along the chain shown (N, C = ends). [ ]: non-standard residue; d: D form. The star is where a group is joined. d1Nal = N[C@H](Cc1cccc2ccccc12)C(=O)O; Ahp = NCCCCCCC(=O)O; Bn = c1ccc(C*)cc1

How the values were obtained:
[1] = target: Somatostatin receptor type 2 (Homo sapiens, UniProt P30874)
Chain of Somatostatin receptor type 2 (P30874 whole entry): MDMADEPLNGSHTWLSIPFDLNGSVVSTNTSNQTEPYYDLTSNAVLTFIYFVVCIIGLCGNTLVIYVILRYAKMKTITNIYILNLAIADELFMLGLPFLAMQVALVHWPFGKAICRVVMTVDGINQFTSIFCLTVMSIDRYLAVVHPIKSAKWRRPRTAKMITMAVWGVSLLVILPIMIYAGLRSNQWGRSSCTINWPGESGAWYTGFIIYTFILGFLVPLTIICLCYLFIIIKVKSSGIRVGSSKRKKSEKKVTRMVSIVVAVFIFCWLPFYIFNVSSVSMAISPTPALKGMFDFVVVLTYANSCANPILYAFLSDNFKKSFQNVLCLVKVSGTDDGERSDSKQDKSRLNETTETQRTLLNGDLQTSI

[2] = target: Somatostatin receptor type 5 (Homo sapiens, UniProt P35346)
Chain of Somatostatin receptor type 5 (P35346 whole entry): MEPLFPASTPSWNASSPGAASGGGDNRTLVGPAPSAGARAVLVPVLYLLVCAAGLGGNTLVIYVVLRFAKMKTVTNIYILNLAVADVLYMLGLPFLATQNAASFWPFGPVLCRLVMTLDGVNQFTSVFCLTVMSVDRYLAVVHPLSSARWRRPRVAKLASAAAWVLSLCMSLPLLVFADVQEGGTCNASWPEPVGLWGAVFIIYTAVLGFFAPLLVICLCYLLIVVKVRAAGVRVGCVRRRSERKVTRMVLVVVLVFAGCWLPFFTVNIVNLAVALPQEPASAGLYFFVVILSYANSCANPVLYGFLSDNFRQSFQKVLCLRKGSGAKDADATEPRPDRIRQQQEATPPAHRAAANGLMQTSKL

SMILES	Ki [1]	Ki [2]
C[C@@H](O)[C@@H]1NC(=O)[C@H](CCCCN)NC(=O)[C@@H](Cc2c[nH]c3ccccc23)NC(=O)[C@H](Cc2ccccc2)NC(=O)[C@@H]2CCCN2C(=O)[C@H](Cc2ccccc2)NC1=O (cyclo(PF[dW]KTF))	5.24 nM and 4.07 nM and 4.78 nM and 0.53 nM	–
CC(C)[C@@H]1NC(=O)[C@H](CCCCN)NC(=O)[C@@H](Cc2c[nH]c3ccccc23)NC(=O)[C@H](Cc2ccc(O)cc2)NC(=O)[C@@H](NC(=O)[C@H](N)Cc2ccc3ccccc3c2)CSSC[C@@H](C(=O)N[C@H](C(N)=O)[C@@H](C)O)NC1=O [3-(2-Naphtyl)-D-Ala-L-Cys(1)-L-Tyr-D-Trp-L-Lys-L-Val-L-Cys(1)-L-Thr-NH2]	0.53 nM and 1.38 nM and 0.28 nM and 0.21 nM	–
CC(C)[C@H](NC(=O)[C@H](CCCCN)NC(=O)[C@@H](Cc1c[nH]c2ccccc12)NC(=O)[C@H](Cc1ccc(O)cc1)NC(=O)[C@H](Cc1ccccc1)NC(=O)[C@H](N)Cc1ccccc1)C(=O)N[C@@H](Cc1ccccc1)C(=O)N[C@H](Cc1cccc2ccccc12)C(N)=O [BIM 23056] (H-[dF]FY[dW]KVF[d1Nal]-NH2)	468 nM and 724 nM and 417 nM and 224 nM	–
C[C@@H](O)[C@H](NC(=O)[C@H](Cc1ccccc1)NC(=O)[C@@H](NC(=O)[C@H](CCCCN)NC(=O)[C@@H](Cc1c[nH]c2ccccc12)NC(=O)[C@H](Cc1ccccc1)NC(=O)[C@H](Cc1ccccc1)NC(=O)[C@H](N)Cc1ccccc1)[C@@H](C)O)C(N)=O [CAS_133073-82-2] (H-[dF]FF[dW]KTFT-NH2)	1.73 nM and 5.01 nM and 16.6 nM and 2.81 nM and 1.86 nM	–

More lines, now with the values ahead:

Ki [1]	Ki [2]	SMILES
0.91 nM and 1.77 nM and 4.46 nM	0.57 nM and 1.94 nM and 0.45 nM	C[C@@H](O)[C@@H]1NC(=O)[C@H](CCCCN)NC(=O)[C@H](Cc2c[nH]c3ccccc23)NC(=O)[C@H](Cc2ccccc2)NC(=O)[C@H](Cc2ccccc2)NC(=O)[C@H](CC(N)=O)NC(=O)[C@H](CCCCN)NC(=O)[C@@H](NC(=O)[C@@H]2CCCN2)CSSC[C@@H](C(=O)N[C@@H](CCCCN)C(=O)O)NC(=O)[C@H](CO)NC(=O)[C@H](CO)NC(=O)[C@H](Cc2ccccc2)NC1=O [CORTISTATIN-14] (H-PCKNFFWKTFSSCK-OH; disulfide 2-13)
2.04 nM and 4.36 nM and 1.62 nM	–	C[C@@H](O)[C@@H]1NC(=O)[C@H](CCCCN)NC(=O)[C@@H](Cc2c[nH]c3ccccc23)NC(=O)[C@H](Cc2c[nH]c3ccccc23)NC(=O)[C@H](Cc2ccccc2)NC(=O)CCCCCCNC(=O)[C@H](Cc2ccccc2)NC1=O [L-362855] (cyclo([Ahp]FW[dW]KTF))
1580 nM and 3980 nM and 3720 nM and 1700 nM and 1260 nM	–	C[C@@H](OCc1ccccc1)[C@@H]1NC(=O)[C@H](CCCCN)NC(=O)[C@@H](Cc2c[nH]c3ccccc23)NC(=O)[C@H](Cc2ccccc2)NC(=O)CCCCCCNC1=O [c[Aha-Phe-D-Trp-Lys-Thr(Bzl)]] (cyclo([Ahp]F[dW]KT(Bn)))
